According to patent US9518046B2 (Calitor Sciences, LLC, priority 2015, dated 2016):

Tests used:
[1] = Pharmacokinetics after intravenous and oral administration in rats; type: in vivo; settings: Rats; iv dosing; dose 1 mg/kg (0.5 for Ex. 1, 10, 11, 35; 0.48 for Ex. 24)
How it was run: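 Dosing used solution, suspension or capsule formulations: 1 or 2 mg/kg IV in all species; PO 5 or 10 mg/kg in mice and rats, 10 mg/kg in dogs and monkeys. Plasma sampled from 0.083 or 0.25 h up to 24 h post-dose; concentrations determined by LC/MS/MS in MRM mode.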

[2] = Pharmacokinetics after intravenous and oral administration in mice; type: in vivo; settings: Mouse; iv dosing 1 mg/kg
Protocol: (§1) The LC/MS/MS system used in the analysis consists of an Agilent 1200 Series vacuum degasser, binary pump, well-plate autosampler, thermostatted column compartment, the Agilent G6430 Triple Quadrupole Mass Spectrometer with an electrosprayionization (ESI) source. Quantitative analysis was carried out using MRM mode. The parameters for MRM transitions are in the Table A.
(§2) An Agilent XDB-C18, 2.1×30 mm, 3.5 M column was used for the analysis. 5 L of the samples were injected. Analysis condition: The mobile phase was 0.1% formic acid in water (A) and 0.1% formic acid in methanol (B). The flow rate was 0.4 mL/min. And the gradient of Mobile phase was in the Table B.
Alternatively, an Agilent 6330 series LC/MS/MS spectrometer equipped with G1312A binary pumps, a G1367A autosampler and a G1314C UV detector were used in the analysis. An ESI source was used on the LC/MS/MS spectrometer. The analysis was done in positive ion mode as appropriate and the MRM transition for each analyte was optimized using standard solution. A Capcell MP-C18 100×4.6 mm I.D., […] column (Phenomenex, Torrance, Calif., USA) was used during the analysis. […]
The compounds disclosed herein are assessed in pharmacokinetic studies in mice, rats, dogs or monkeys. […] The plasma solutions are collected, stored at −20° C. or −70° C. until analyzed by LC/MS/MS as described above.

[3] = Pharmacokinetics after intravenous and oral administration in dogs; type: in vivo; settings: Dog; iv dosing 1 mg/kg
Protocol: as §1, §2
(§3) Alternatively, an Agilent 6330 series LC/MS/MS spectrometer equipped with G1312A binary pumps, a G1367A autosampler and a G1314C UV detector were used in the analysis. An ESI source was used on the LC/MS/MS spectrometer. The analysis was done in positive ion mode as appropriate and the MRM transition for each analyte was optimized using standard solution. A Capcell MP-C18 100×4.6 mm I.D., […] column (Phenomenex, Torrance, Calif., USA) was used during the analysis. The mobile phase was 5 mM ammonia acetate, 0.1% MeOH in water (A): 5 mM ammonia acetate, 0.1% MeOH in acetonitrile (B) (70:30, v/v). The flow rate was 0.6 mL/min. Column was maintained at ambient temperature. 20 μL of the samples were injected.
(§4) The compounds disclosed herein are assessed in pharmacokinetic studies in mice, rats, dogs or monkeys. The compounds are administered as a water solution, 2% HPMC+1% TWEEN®80 in water solution, 5% DMSO+5% solutol in saline, 4% MC suspension or capsule. For the intravenous administration, the animals are generally given at 1 or 2 mg/kg dose. For the oral (p.o.) dosing, mice and rats are generally given 5 or 10 mg/kg dose, and dogs and monkeys are generally given 10 mg/kg dose. […] The plasma solutions are collected, stored at −20° C. or −70° C. until analyzed by LC/MS/MS as described above.

[4] = Pharmacokinetics after intravenous and oral administration in monkeys; type: in vivo; settings: Monkey; iv dosing 1 mg/kg
Protocol: as §1, §2, §3, §4

PI3Kδ = settings: literature; cited from earlier work
protein kinases = settings: literature; cited from earlier work
[5] = murine model of asthma, ovalbumin-induced airway inflammation; literature; cited from earlier work
[6] = literature; cited from earlier work
[7] = literature; cited from earlier work; remark: listed apart in the source

Row | Structure (SMILES) | CL/F [1] [mL/min/kg] | CL/F [2] [mL/min/kg] | CL/F [3] [mL/min/kg] | CL/F [4] [mL/min/kg] | further results
1 | Cc1nnc(-c2c(N)ncnc2N[C@@H](C)c2nc3cccc(Cl)c3c(=O)n2-c2ccccc2)o1 [Ex. 64, (S)-2-(1-((6-amino-5-(5-methyl-1,3,4-oxadiazol-2-yl)pyrimidin-4-yl)amino)ethyl)-5-chloro-3-phenylquinazolin-4(3H)-one] | 28.3 | 18.8 | 1.83 | 7.17 | 
2 | Cc1noc(-c2c(N)ncnc2N[C@@H](C)c2nc3cccc(Cl)c3c(=O)n2-c2ccccc2)n1 [Ex. 65, (S)-2-(1-((6-amino-5-(3-methyl-1,2,4-oxadiazol-5-yl)pyrimidin-4-yl)amino)ethyl)-5-chloro-3-phenylquinazolin-4(3H)-one] |  | 31.7 | 6.17 | 15.3 | 
3 | Cc1ccccc1-n1c(Cn2cnc3c(N)ncnc32)nc2cccc(C)c2c1=O [IC87114] |  |  |  |  | inhibits PI3Kδ (PI3Kδ): high nanomolar range (triple digit); activity against any protein kinases tested (protein kinases): no activity; effect on inflammation and disease [5]: significantly ameliorate inflammation and disease
4 | CC[C@H](Nc1ncnc(N)c1-c1nc(C)no1)c1nc2cccc(Cl)c2c(=O)n1C1CC1 [Ex. 4, (S)-2-(1-((6-amino-5-(3-methyl-1,2,4-oxadiazol-5-yl)pyrimidin-4-yl)amino)-propyl)-5-chloro-3-cyclopropylquinazolin-4(3H)-one] | 21.5 |  | 9.67 | 11.6 | 
5 | O=C1NC(=O)/C(=C\c2ccc3nccnc3c2)S1 [AS 605240] |  |  |  |  | efficacy in mouse model of rheumatoid arthritis [6]: efficacious; effect on onset of disease in model of systemic lupus erythematosis [7]: delay onset of disease
